In patent US6627581B1, “Cyclopropyl-anellated 3-(4,5-dihydroisoxazol-3-yl)-substituted benzoylpyrazoles” (BASF Aktiengesellschaft, priority 1999, dated 2003) one finds post-emergence action and melting point data, which are given here for eleven molecules.

One data set concerns Amaranthus retroflexus. The experiment in a line: greenhouse post-emergence herbicidal test. The following applies: Amaranthus retroflexus (pig weed), application rates of 0.25 or 0.125 kg/ha, 2 to 4 weeks. The data set is classed as in vivo. The text has this:
(§1) The cultivation containers used were plastic pots containing loamy sand with approximately 3.0% of humus as the substrate. The seeds of the test plants were sown separately for each species.
(§2) For the post-emergence treatment, the test plants were first grown to a height of from 3 to 15 cm, depending on the plant habit, and only then treated with the active compounds which had been suspended or emulsified in water. The test plants were for this purpose either sown directly and grown in the same containers, or they were first grown separately as seedlings and transplanted into the test containers a few days prior to treatment. The application rate for the post-emergence treatment was 0.25 or 0.125 kg of a.s. (active substance)/ha.
(§3) Depending on the species, the plants were kept at 10-25° C. or 20-35° C. The test period extended over from 2 to 4 weeks. During this time, the plants were tended, and their response to the individual treatments was evaluated.
(§4) The evaluation was carried out using a scale from 0 to 100. 100 means no emergence of the plants, or complete destruction of at least the aerial parts and 0 means no damage, or normal course of growth.
(§5) The plants used in the greenhouse experiments were of the following species: […]

The next data set concerns Avena fatua. The experiment in a line: greenhouse post-emergence herbicidal test. The following applies: Avena fatua (wild oat), application rates of 0.25 or 0.125 kg/ha, 2 to 4 weeks. The format is in vivo.
Excerpt: as §1, §2, §3, §4, §5

A further data set concerns Chenopodium album. The experiment in a line: greenhouse post-emergence herbicidal test. To be noted: Chenopodium album (lambsquaters), application rates of 0.25 or 0.125 kg/ha, 2 to 4 weeks. The data set is classed as in vivo.
Excerpt: as §1, §2, §3, §4, §5

Another data set has as its system Echinochloa crus galli. The experiment in a line: greenhouse post-emergence herbicidal test. The data set is classed as in vivo. To be noted: Echinochloa crus galli (barnyardgrass), application rates of 0.25 or 0.125 kg/ha, 2 to 4 weeks.
Excerpt: as §1, §2, §3, §4, §5

In a further data set the test system is Polygonum persicaria. The experiment in a line: greenhouse post-emergence herbicidal test. The data set is classed as in vivo. The following applies: Polygonum persicaria (ladysthumb), application rates of 0.25 or 0.125 kg/ha, 2 to 4 weeks.
Excerpt: as §1, §2, §3, §4, §5

For a further data set, the system named is Setaria faberi. The experiment in a line: greenhouse post-emergence herbicidal test. The data set is classed as in vivo. The following applies: Setaria faberi (giant foxtail), application rates of 0.25 or 0.125 kg/ha, 2 to 4 weeks.
Excerpt: as §1, §2, §3, §4, §5

Take `Cc1nn(C)c(O)c1C(=O)c1ccc(S(C)(=O)=O)c(C2=NOC3CC23)c1C` (centres unmarked) [Compound 2.5]: the melting point (commonly the temperature of the solid-liquid transition) was 89 to 91 °C. For the same molecule, the post-emergence action result with Amaranthus retroflexus is “very good”. Further, the post-emergence action result with Avena fatua is on record as “very good”. For the same molecule, the post-emergence action entry with Chenopodium album was “very good”. The post-emergence action entry in the data set on Echinochloa crus galli is on record as “very good”. Moreover, the post-emergence action result in the data set on Polygonum persicaria was “very good”. Further, the post-emergence action result in the data set on Setaria faberi was “very good”.

For `Cc1c(C(=O)c2cnn(C)c2O)ccc(S(C)(=O)=O)c1C1=NOC2CC12` (centres unmarked) [Compound 2.3, 4-[2-Methyl-3-(2-oxa-3-azabicyclo[3.1.0]hex-3-en-4-yl)-4-methyl-sulfonylbenzoyl]-5-hydroxy-1-methyl-1H-pyrazole], the melting point was in the range of 106 to 112 °C.

For the molecule `Cc1c(C(=O)c2cnn(C(C)C)c2O)ccc(S(C)(=O)=O)c1C1=NOC2(C)CC12` (centres unmarked) [Compound 2.11], the melting point fell in the range of 67 to 70 °C.

As to `Cc1c(C(=O)c2cnn(C(C)(C)C)c2O)ccc(S(C)(=O)=O)c1C1=NOC2CC12C` (centres unmarked) [Compound 2.16], the melting point was 110 to 115 °C.

In the case of `Cc1c(C(=O)c2cnn(C(C)(C)C)c2O)ccc(S(C)(=O)=O)c1C1=NOC2CC12` (centres unmarked) [Compound 2.1, 4-[2-Methyl-3-(2-oxa-3-aza-bicyclo[3.1.0]hex-3-en-4-yl)-4-methylsulfonylbenzoyl]-5-hydroxy-1-tert-butyl-1H-pyrazole], the melting point lay within 69 to 74 °C.

Take `Cc1c(C(=O)c2cnn(C)c2O)ccc(S(C)(=O)=O)c1C1=NOC2CC12C` (centres unmarked) [Compound 2.13]: the melting point fell in the range of 99 to 103 °C.

In the case of `Cc1c(C(=O)c2cnn(C(C)C)c2O)ccc(S(C)(=O)=O)c1C1=NOC2CC12C` (centres unmarked) [Compound 2.14], the melting point lay within 75 to 80 °C.

For `Cc1c(C(=O)c2cnn(C(C)(C)C)c2O)ccc(S(C)(=O)=O)c1C1=NOC2(C)CC12` (centres unmarked) [Compound 2.10], the melting point was 90 to 95 °C.

As for `CCn1ncc(C(=O)c2ccc(S(C)(=O)=O)c(C3=NOC4CC34)c2C)c1O` (centres unmarked) [Compound 2.2], the melting point is 94 to 97 °C.

`Cc1c(C(=O)c2cnn(C)c2O)ccc(S(C)(=O)=O)c1C1=NOC2(C)CC12` (centres unmarked) [Compound 2.7] came in with a melting point of 98 to 102 °C.

As to `Cc1c(C(=O)c2cnn(C(C)C)c2O)ccc(S(C)(=O)=O)c1C1=NOC2CC12` (centres unmarked) [Compound 2.4], the melting point is 90 to 95 °C.
